Measurements published in ChEMBL document CHEMBL6114989, “D-morphinan analogs with favorable pharmacokinetic profiles as dual-acting antidepressants” (Eur J Med Chem, 2025).
The source made the active and inactive calls. No cut-off for these calls is given here.

Legend:
[1] = Metabolic stability in human liver microsome assessed as half life in presence of NADPH measured upto 60 mins by LC-MS/MS analysis; format: ADME; conditions: liver microsomes
[2] = Nephrotoxicity against human HEK293 cells assessed as inhibition of cell proliferation incubated for 48 hrs by celltiter-luminescence assay; format: toxicity, cell-based
[3] = AUC (0 to infinity) in ICR mouse at 10 mg/kg, po measured upto 24 hrs by LC-MS/MS analysis; format: ADME, organism-based; conditions: in vivo
[4] = Metabolic stability in mouse liver microsome assessed as intrinsic clearance in presence of NADPH measured upto 60 mins by LC-MS/MS analysis; format: ADME; conditions: liver microsomes, read-out: CLH
[5] = MRT (0 to infinity) in ICR mouse at 10 mg/kg, ip measured upto 24 hrs by LC-MS/MS analysis; format: ADME, organism-based; conditions: in vivo
[6] = system: Mus musculus; experiment: Antidepressant activity in C57BL/6J mouse assessed as reduction in of immobility time at 10 to 30 mg/kg, po by forced swim test; format: functional, organism-based; conditions: dose 10-30 mg/kg
[7] = system: HEK293; experiment: Nephrotoxicity against human HEK293 cells assessed as reduction in cell viability at 200 uM incubated for 48 hrs by celltiter-luminescence assay; format: toxicity, cell-based; conditions: hek293, 48 h
[8] = MRT (0 to t) in ICR mouse at 10 mg/kg, po measured upto 24 hrs by LC-MS/MS analysis; format: ADME, organism-based; conditions: in vivo
[9] = molecular target: Mu-type opioid receptor (Homo sapiens, UniProt P35372); experiment: Agonist activity at human mu-opioid receptor stably expressed in CHO cells assessed as inhibition of forskolin-induced cAMP accumulation at 30 uM preincubated with compound for 10 mins followed by forskolin induction and measured after 30 mins by LANCE Ultra cAMP assay relative to control; format: functional, cell-based; conditions: time 40.0 min
[10] = Cmax in ICR mouse at 10 mg/kg, po measured upto 24 hrs by LC-MS/MS analysis; format: ADME, organism-based; conditions: in vivo
[11] = Tmax in ICR mouse at 10 mg/kg, ip measured upto 24 hrs by LC-MS/MS analysis; format: ADME, organism-based; conditions: in vivo
[12] = Hepatotoxicity against human HepG2 cells assessed as inhibition of cell proliferation incubated for 48 hrs by celltiter-luminescence assay; format: toxicity, cell-based
[13] = AUC (0 to t) in ICR mouse at 10 mg/kg, po measured upto 24 hrs by LC-MS/MS analysis; format: ADME, organism-based; conditions: in vivo
[14] = Metabolic stability in mouse liver microsome assessed as hepatic clearance in presence of NADPH measured upto 60 mins by LC-MS/MS analysis; format: ADME; conditions: liver microsomes
[15] = molecular target: Sodium-dependent dopamine transporter (Homo sapiens, UniProt Q01959); experiment: Inhibition of DAT (unknown origin) at 10 uM relative to control
[16] = molecular target: Glutamate NMDA receptor; GRIN1/GRIN2A (Homo sapiens, UniProt Q05586+Q12879); experiment: Antagonist activity at human GluN1/GluN2A NMDA receptor expressed in HEK293 cells assessed as reduction in glutamate induced current at -70 mV holding potential by whole-cell patch clamp technique; format: cell-based
[17] = molecular target: Voltage-gated inwardly rectifying potassium channel KCNH2 (Homo sapiens, UniProt Q12809); experiment: Inhibition of hERG expressed in CHO cells assessed as inhibition of channel current at holding potential of -80 mV by automated patch clamp method; format: toxicity, cell-based
[18] = AUC (0 to infinity) in ICR mouse at 10 mg/kg, ip measured upto 24 hrs by LC-MS/MS analysis; format: ADME, organism-based; conditions: in vivo
[19] = Metabolic stability in mouse liver microsome assessed as half life in presence of NADPH measured upto 60 mins by LC-MS/MS analysis; format: ADME; conditions: liver microsomes
[20] = Metabolic stability in human liver microsome assessed as hepatic clearance in presence of NADPH measured upto 60 mins by LC-MS/MS analysis; format: ADME; conditions: liver microsomes
[21] = AUC (0 to t) in ICR mouse at 10 mg/kg, ip measured upto 24 hrs by LC-MS/MS analysis; format: ADME, organism-based; conditions: in vivo
[22] = Hepatotoxicity against human HepG2 cells assessed as reduction in cell viability at 50 uM incubated for 48 hrs by celltiter-luminescence assay; format: toxicity, cell-based; conditions: hepg2, 48 h
[23] = molecular target: T1, Sodium-dependent noradrenaline transporter (Homo sapiens, UniProt P23975); experiment: Inhibition of human NET
[24] = Metabolic stability in human liver microsome assessed as intrinsic clearance in presence of NADPH measured upto 60 mins by LC-MS/MS analysis; format: ADME; conditions: liver microsomes, read-out: CLH
[25] = Tmax in ICR mouse at 10 mg/kg, po measured upto 24 hrs by LC-MS/MS analysis; format: ADME, organism-based; conditions: in vivo
[26] = Half life in ICR mouse at 10 mg/kg, po measured upto 24 hrs by LC-MS/MS analysis; format: ADME, organism-based; conditions: in vivo
[27] = Cmax in ICR mouse at 10 mg/kg, ip measured upto 24 hrs by LC-MS/MS analysis; format: ADME, organism-based; conditions: in vivo
[28] = system: Mus musculus; experiment: Antidepressant activity in C57BL/6J mouse assessed as reduction in of immobility time at 10 to 30 mg/kg, po in presence of quinidine by forced swim test; format: functional, organism-based; conditions: dose 10-30 mg/kg
[29] = Half life in ICR mouse at 10 mg/kg, ip measured upto 24 hrs by LC-MS/MS analysis; format: ADME, organism-based; conditions: in vivo
[30] = Hepatotoxicity against human HepG2 cells assessed as reduction in cell viability at 100 to 200 uM incubated for 48 hrs by celltiter-luminescence assay; format: toxicity, cell-based; conditions: hepg2, 48 h, dose 100-200 µM
[31] = molecular target: Sodium-dependent serotonin transporter (Homo sapiens, UniProt P31645)
[32] = Metabolic stability in human liver microsome assessed as hepatic extraction ratio in presence of NADPH measured upto 60 mins by LC-MS/MS analysis; format: ADME; conditions: liver microsomes, read-out: ERH
[33] = Metabolic stability in mouse liver microsome assessed as hepatic extraction ratio in presence of NADPH measured upto 60 mins by LC-MS/MS analysis; format: ADME; conditions: liver microsomes, read-out: ERH
[34] = system: Mus musculus; experiment: Antidepressant activity in ip dosed C57BL/6J mouse assessed as reduction in of immobility time by forced swim test; format: functional, organism-based; conditions: dose 10-20 mg/kg
[35] = system: Mus musculus; experiment: Antidepressant activity in C57BL/6J mouse assessed as reduction in of immobility time at 20 mg/kg, ip by forced swim test; format: functional, organism-based
[36] = molecular target: T1, Sodium-dependent noradrenaline transporter; experiment: Inhibition of NET (unknown origin) at 10 uM relative to control
[37] = Selectivity index, ratio of IC50 for inhibition of human GluN1/GluN2A NMDA receptor expressed in HEK293 cells to IC50 for inhibition of SERT (unknown origin); format: cell-based
[38] = system: HEK293; experiment: Nephrotoxicity against human HEK293 cells assessed as reduction in cell viability at 100 to 200 uM incubated for 48 hrs by celltiter-luminescence assay; format: toxicity, cell-based; conditions: hek293, 48 h, dose 100-200 µM

Chain of Voltage-gated inwardly rectifying potassium channel KCNH2 (Q12809 whole entry): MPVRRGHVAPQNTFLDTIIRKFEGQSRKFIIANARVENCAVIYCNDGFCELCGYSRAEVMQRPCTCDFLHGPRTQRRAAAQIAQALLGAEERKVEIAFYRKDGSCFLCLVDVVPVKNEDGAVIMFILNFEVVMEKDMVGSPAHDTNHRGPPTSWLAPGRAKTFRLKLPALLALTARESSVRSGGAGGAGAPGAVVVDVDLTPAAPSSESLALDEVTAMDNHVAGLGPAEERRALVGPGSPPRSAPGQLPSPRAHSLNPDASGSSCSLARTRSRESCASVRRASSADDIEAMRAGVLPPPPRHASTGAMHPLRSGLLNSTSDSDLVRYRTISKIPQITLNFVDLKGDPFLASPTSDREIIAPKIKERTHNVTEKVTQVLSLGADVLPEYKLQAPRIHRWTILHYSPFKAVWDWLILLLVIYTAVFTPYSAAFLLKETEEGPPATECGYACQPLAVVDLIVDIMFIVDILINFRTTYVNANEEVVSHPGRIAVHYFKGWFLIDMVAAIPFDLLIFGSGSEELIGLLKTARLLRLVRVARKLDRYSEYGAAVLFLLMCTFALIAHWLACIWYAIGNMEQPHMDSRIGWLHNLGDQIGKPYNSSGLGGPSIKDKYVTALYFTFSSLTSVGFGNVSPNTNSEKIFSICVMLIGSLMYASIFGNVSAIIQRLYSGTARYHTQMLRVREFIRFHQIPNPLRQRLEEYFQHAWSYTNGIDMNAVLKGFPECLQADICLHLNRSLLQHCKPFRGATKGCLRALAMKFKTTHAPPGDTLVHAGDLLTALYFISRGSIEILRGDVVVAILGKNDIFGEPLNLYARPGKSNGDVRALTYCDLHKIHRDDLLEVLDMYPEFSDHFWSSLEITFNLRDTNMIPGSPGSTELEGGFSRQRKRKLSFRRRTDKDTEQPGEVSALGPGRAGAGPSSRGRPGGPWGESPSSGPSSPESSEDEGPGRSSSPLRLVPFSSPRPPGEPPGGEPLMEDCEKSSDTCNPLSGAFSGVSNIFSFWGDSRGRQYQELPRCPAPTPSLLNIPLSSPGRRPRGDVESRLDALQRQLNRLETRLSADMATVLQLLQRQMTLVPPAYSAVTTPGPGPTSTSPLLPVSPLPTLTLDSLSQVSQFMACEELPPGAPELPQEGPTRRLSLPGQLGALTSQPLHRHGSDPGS
Chain of Glutamate NMDA receptor; GRIN1/GRIN2A (Q12879 whole entry, other chains not shown): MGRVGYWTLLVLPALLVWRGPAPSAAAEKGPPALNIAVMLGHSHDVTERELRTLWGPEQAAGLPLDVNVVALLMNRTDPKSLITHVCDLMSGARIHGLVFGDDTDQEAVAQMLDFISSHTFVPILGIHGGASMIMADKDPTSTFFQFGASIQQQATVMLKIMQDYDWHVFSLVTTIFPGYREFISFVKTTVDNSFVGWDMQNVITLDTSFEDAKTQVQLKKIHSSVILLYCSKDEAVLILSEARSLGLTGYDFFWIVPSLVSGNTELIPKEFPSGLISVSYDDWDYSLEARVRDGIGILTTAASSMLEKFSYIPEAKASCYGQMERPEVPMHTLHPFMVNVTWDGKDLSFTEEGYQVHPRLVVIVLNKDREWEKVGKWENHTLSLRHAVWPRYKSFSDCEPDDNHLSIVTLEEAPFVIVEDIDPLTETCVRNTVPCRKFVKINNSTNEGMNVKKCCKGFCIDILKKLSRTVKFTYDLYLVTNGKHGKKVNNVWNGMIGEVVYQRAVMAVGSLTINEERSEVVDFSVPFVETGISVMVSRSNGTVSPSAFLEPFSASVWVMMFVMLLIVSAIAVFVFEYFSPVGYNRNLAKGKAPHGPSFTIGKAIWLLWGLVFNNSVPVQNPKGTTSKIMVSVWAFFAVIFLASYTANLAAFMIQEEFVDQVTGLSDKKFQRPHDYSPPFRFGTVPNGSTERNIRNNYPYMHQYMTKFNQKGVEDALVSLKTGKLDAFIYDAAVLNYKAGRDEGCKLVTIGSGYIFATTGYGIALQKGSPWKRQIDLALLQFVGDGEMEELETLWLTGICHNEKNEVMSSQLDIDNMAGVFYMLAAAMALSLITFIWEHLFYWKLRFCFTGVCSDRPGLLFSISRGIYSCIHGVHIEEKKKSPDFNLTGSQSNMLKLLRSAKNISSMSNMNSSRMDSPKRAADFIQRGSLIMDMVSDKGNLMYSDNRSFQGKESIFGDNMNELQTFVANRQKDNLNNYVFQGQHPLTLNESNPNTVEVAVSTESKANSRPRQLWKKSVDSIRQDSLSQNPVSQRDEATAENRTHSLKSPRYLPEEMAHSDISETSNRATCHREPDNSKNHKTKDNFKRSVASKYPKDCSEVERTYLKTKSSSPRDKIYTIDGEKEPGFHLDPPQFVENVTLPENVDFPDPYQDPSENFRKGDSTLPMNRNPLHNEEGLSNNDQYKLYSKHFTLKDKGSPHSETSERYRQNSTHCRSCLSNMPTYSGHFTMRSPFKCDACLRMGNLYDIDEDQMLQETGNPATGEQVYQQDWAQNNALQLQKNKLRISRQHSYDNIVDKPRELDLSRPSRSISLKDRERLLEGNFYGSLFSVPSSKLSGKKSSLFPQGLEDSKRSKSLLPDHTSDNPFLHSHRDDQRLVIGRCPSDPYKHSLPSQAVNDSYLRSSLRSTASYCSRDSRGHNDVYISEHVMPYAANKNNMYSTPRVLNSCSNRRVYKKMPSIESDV
Chain of Mu-type opioid receptor (P35372 whole entry): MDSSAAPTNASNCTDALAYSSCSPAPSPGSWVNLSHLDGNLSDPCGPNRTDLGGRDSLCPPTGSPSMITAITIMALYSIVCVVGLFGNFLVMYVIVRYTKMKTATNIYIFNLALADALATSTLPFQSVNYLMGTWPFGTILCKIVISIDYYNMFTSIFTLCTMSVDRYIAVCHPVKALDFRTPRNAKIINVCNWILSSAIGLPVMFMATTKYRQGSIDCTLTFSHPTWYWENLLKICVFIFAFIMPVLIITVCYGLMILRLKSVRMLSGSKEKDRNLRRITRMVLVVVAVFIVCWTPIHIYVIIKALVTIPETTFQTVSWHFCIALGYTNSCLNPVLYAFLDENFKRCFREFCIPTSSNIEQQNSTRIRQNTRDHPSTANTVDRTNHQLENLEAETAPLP
Chain of Sodium-dependent dopamine transporter (Q01959 whole entry): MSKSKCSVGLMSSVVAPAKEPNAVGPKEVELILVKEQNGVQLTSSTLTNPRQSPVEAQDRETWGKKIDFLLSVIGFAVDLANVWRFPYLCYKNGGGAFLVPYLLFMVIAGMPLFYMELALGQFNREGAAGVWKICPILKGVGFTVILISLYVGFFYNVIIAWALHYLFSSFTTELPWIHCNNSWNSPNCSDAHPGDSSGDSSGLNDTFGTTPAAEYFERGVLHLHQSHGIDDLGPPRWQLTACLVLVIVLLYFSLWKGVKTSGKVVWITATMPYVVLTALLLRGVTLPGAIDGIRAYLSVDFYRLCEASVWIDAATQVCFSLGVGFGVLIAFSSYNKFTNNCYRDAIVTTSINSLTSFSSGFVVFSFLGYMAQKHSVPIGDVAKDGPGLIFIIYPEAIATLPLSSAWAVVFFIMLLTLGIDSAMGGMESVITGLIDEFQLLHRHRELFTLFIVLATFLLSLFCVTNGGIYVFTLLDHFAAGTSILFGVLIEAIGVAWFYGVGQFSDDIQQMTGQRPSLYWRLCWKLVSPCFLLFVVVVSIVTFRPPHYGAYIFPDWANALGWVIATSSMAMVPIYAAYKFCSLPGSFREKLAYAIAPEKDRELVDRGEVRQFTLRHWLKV
Chain of Sodium-dependent serotonin transporter (P31645 whole entry): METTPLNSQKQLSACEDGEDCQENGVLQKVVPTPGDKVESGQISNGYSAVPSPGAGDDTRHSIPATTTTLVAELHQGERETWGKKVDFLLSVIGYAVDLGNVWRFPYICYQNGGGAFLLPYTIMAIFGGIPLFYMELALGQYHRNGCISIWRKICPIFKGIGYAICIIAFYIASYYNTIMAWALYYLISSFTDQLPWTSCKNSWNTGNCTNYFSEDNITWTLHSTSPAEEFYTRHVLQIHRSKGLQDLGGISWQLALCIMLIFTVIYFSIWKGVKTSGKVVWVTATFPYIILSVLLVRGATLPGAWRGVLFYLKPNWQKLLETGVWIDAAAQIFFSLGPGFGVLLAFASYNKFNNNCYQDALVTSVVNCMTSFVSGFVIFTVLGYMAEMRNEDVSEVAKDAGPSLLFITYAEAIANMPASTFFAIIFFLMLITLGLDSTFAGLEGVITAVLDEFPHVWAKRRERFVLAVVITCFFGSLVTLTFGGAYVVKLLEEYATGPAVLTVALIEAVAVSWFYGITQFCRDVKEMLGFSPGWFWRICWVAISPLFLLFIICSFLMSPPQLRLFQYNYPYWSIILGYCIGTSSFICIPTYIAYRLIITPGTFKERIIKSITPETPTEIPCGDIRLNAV
T1 sequence (P23975 whole entry): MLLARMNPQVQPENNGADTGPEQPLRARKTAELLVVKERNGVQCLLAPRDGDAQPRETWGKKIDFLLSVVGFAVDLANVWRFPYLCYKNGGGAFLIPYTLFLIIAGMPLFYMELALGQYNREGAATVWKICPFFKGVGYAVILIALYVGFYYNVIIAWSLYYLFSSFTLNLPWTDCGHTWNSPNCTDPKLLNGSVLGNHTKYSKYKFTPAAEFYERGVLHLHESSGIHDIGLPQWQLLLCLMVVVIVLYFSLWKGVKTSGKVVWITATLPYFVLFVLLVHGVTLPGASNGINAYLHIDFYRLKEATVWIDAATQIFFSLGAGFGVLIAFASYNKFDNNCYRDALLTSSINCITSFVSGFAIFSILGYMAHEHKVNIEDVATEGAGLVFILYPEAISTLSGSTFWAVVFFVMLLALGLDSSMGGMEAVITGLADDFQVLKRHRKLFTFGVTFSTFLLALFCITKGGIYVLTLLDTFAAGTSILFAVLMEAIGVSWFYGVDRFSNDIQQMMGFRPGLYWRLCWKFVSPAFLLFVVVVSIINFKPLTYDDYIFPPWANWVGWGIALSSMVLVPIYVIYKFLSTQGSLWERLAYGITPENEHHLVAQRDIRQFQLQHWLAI

| Compound | half-life [1] [h] | IC50 at 48 h [2] [µM] | AUC(0-inf) [3] [ng·h/mL] | CLint scaled [4] [mL/min/kg] | MRT inf [5] [h] | MRT last at 24 h [8] [h] | inhibition [9] [%] | Cmax [10] [ng/mL] | Tmax [11] [min] | IC50 at 48 h [12] [µM] | AUC(0-t) at 24 h [13] [ng·h/mL] | CLhep predicted [14] [mL/min/kg] | inhibition [15] | IC50 [16] [µM] | IC50 [17] [µM] | AUC(0-inf) [18] [ng·h/mL] | half-life [19] [h] | CLhep predicted [20] [mL/min/kg] | AUC(0-t) at 24 h [21] [ng·h/mL] | CLint scaled [24] [mL/min/kg] | also measured |
| --- | --- | --- | --- | --- | --- | --- | --- | --- | --- | --- | --- | --- | --- | --- | --- | --- | --- | --- | --- | --- | --- |
| COc1ccc2c(c1)[C@]13CCCC[C@@H]1[C@H](C2)N(C)CC3 [DEXTROMETHORPHAN] | 2.32 | > 200 | 207 | 360 | 1.33 | 5.1 | 5 | 57.7 | 8.4 | > 200 | 198 | 72 | inactive | 1.04 | 13 | 820 | 0.433 | 10.5 | 817 | 20.9 | Activity [6]: inactive; Activity [7]: Toxic; Activity [22]: Non-toxic; IC50 [23]: […]; Tmax [25]: 0.83 h; half-life [26]: 3.17 h; Cmax [27]: 720 ng/mL; Activity [28]: Active; half-life [29]: 1.93 h |
| CN1CC[C@@]23CCCC[C@@H]2[C@@H]1Cc1ccc(N)cc13 | 2.08 | > 200 | 2720 | 68.4 | 2.64 | 2.45 | 11 | 1380 | 4.8 | > 200 | 2710 | 38.9 | 11% | 3.5 | 22.1 | 2520 | 2.28 | 11 | 2520 | 23.2 | Activity [30]: Non-toxic; IC50 [31]: 1040 µM; hepatic extraction ratio at 1 h [32]: 0.525; hepatic extraction ratio at 1 h [33]: 0.423; Activity [34]: Dose-dependent-effect; Activity [35]: Active; inhibition [36]: 4%; Ratio IC50 [37]: 3.35; Tmax [25]: 0.42 h; half-life [26]: 3.24 h; Cmax [27]: 1360 ng/mL; half-life [29]: 2.92 h; Activity [38]: Non-toxic |
